This passage reports storage stability results from patent publication US10669250B2, “Hypervalent iodine CF2CF2X reagents and their use” (ETH Zurich, priority 2014, dated 2020).

This data set in a line: Storage stability of reagent 7 and its Boc and salt forms. Format: physicochemical. From the text:
The synthesis of reagent 7-salt is described in Scheme 1. The phenolic oxygen of Boc-protected NMT (N-methyltyramine) was deprotonated with NaH and treated with BrCF2CF2Br (Halon 2402) giving the bromide 4, which was converted to corresponding fluoroalkylsilane 5. […] For that reason, it was generated in situ from 7-salt by addition of base in all subsequent syntheses.

Structures can show the parent of a compound that is named as a salt.

In the case of `CN(CCc1ccc(OC(F)(F)C(F)(F)I2OC(C)(C)c3ccccc32)cc1)C(=O)OC(C)(C)C` [Reagent 7-Boc, tert-Butyl (4-(2-(3,3-dimethyl-1λ^3-benzo[d][1,2]iodaoxol-1 (3H)-yl)-1,1,2,2-tetrafluoroethoxy)phenethyl)-(methyl)carbamate], the storage stability result (brown oil, at −20° C.) was “stable for at least for six months”.
Take `CNCCc1ccc(OC(F)(F)C(F)(F)I2OC(C)(C)c3ccccc32)cc1` [Reagent 7-salt, 3,3-Dimethyl-1-(1,1,2,2-tetrafluoro-2-(4-(2-(methylammonio)ethyl)phenoxy)ethyl)-2,3-dihydro-1H-1λ^3-benzo[d][1,2]iodaoxol-2-ium bis(trifluoroacetate)]: the storage stability result (crystalline, at room temperature) was “appeared stable”.
Regarding `CNCCc1ccc(OC(F)(F)C(F)(F)I2OC(C)(C)c3ccccc32)cc1` [Reagent 7, 2-(4-(2-(3,3-Dimethyl-1λ^3-benzo[d][1,2]iodaoxol-1 (3H)-yl)-1,1,2,2-tetrafluoroethoxy)phenyl)-N-methylethan-1-amine], the storage stability result (isolated deprotected reagent, stored in a freezer) is listed as “decomposed rapidly”.
